Measured values published in publication PMC6027146, “Synthesis and Structure-Activity Relationships of (−)-cis-N-Normetazocine-Based LP1 Derivatives” (Pharmaceuticals, 2018).
Entries after “also recorded” stand apart in the source; their conditions may differ. Read-outs that look alike come from different tables or passages of the source.

Key:
recombinant human MOR = target: T1, recombinant human MOR (Homo sapiens, UniProt P35372); assay: Calcium mobilization assay, CHO-MOR cells expressing Gαqi5; format: cell-based; conditions: for functional profile at MOR: calcium mobilization; for intrinsic activity (α) at MOR: ratio of Emax of ligand to that of the standard; for MOR pEC50 (CL95%): agonist mode, Inactive = inactive at 10 μM, crc incomplete = incomplete concentration response curve at 10 μM
T1 construct: expressed in transfected cells; gift of Dr. Larry Toll (SRI International); infected with a retrovirus for Gαqi5

human-KOR [1] = target: T2, human-KOR (Homo sapiens, UniProt P41145); assay: Calcium mobilization assay, CHO-KOR cells expressing Gαqi5; format: cell-based; set-up: expressed in transfected cells; gift of Dr. Larry Toll (SRI International); infected with a retrovirus for Gαqi5; conditions: for KOR pEC50 (CL95%): agonist mode, crc incomplete = incomplete concentration response curve at 10 μM; for KOR pEC50 (CL95%) / KOR pKB (CL95%): Inactive = inactive at 10 μM; for functional profile at KOR: calcium mobilization; for KOR pKB (CL95%): antagonist mode, dynorphin A as agonist
Experimental: (§1) The pharmacological characterization of LP1 derivatives 2 and 10–16 was performed by calcium mobilization assay (Table 2). This procedure was preliminarily validated through a series of experiments where the effects of DPDPE, dermorphin, and dynorphin A were assessed in CHO cells expressing the human recombinant opioid receptors and Gαqi5 or GαqG66Di5 chimeric proteins.
(§2) Chinese hamster ovary (CHO) cells expressing the recombinant human MOR and KOR (CHO^MOR and CHO^KOR) were kindly provided by Dr. Larry Toll (SRI International, Menlo Park, CA, USA), and CHO cells expressing the recombinant human DOR (CHO^DOR) were supplied by Dr. Eva Varga (Department of Medical Pharmacology, The University of Arizona, Tucson, AZ, USA). CHO cells lines permanently coexpressing the opioid receptors and the C-terminally modified Gαqi5 were prepared by infecting the CHO lines described above with a recombinant retrovirus expressing the chimeric α subunit and the hygromycin resistance gene. Similarly, CHO cells lines permanently coexpressing DOR and the C-terminally modified GαqG66Di5 were prepared by infecting the CHO lines described above with a recombinant retrovirus expressing the chimeric α subunit and the hygromycin resistance gene. Polyclonal cell lines were generated using the pantropic retroviral expression system form BD-Clontech, as described previously. Stable lines were selected under hygromycin B (100 μg/mL) and geneticin (600 μg/mL) for 2–3 weeks after the infection.
(§3) CHO cells, expressing human opioid receptors and the Gαqi5 protein, and CHODOR, expressing the GαqG66Di5 protein, were maintained in culture medium consisting of Dulbecco minimum essential medium (DMEM) and Ham F-12 (1:1) (50/50) supplemented with 10% fetal calf serum (FCS), L-glutamine (2 mM), geneticin (200 μg/mL; G418), hygromycin B (100 μg/mL) at 37 °C in 5% CO2 humidified air. When confluence was reached (3–4 days), cells were subcultured as required using trypsin/EDTA, and used for experimentation. The different cell lines were seeded at a density of […] into black 96-well, clear-bottomed plates. After 24 h incubation, the cells were loaded with medium supplemented with 2.5 mM probenecid, 3 μM of the calcium sensitive fluorescent dye Fluo-4 AM, and 0.01% pluronic acid, for 30 min at 37 °C. Afterwards, the loading solution was aspirated and 100 μL/well of assay buffer—HBSS supplemented with 20 mM HEPES, 2.5 mM probenecid and 500 μM Brilliant Black (Aldrich, St. Louis, MO, USA)—was added. Serial dilutions of ligands for experimental use were made in HBSS/HEPES (20 mM) buffer (containing 0.005% BSA fraction V). After placing both plates (cell culture and compound plate) into the FlexStation II (Molecular Device, Union City, San Jose, CA 94587, USA), fluorescence changes were measured at room temperature. Online additions were carried out in a volume of 50 μL/well. Antagonists were incubated 15 min before the addition of the agonist. Maximum change in fluorescence, expressed in percent of baseline fluorescence, was used to determine agonist response.
(§4) Analysis of the binding data was performed using the Origin 7.5 software (OriginLab Corporation, Northampton, MA, USA). In calcium mobilization experiments, data were analyzed by non-linear curve fitting equation, using GraphPad 5.0 software. […] Ligand efficacy was expressed as intrinsic activity (α), calculated as the ratio between the Emax of the ligand and that of the respective standards. Calcium mobilization data were expressed as FIU (fluorescence intensity units) in percent, over the baseline. Agonist potencies are given as pEC50 (the negative logarithm to base 10 of the molar concentration of an agonist that produces 50% of the maximal possible effect, Emax). Concentration response curves to agonists were fitted with the following equation: Effect = baseline + (Emax − baseline)/(1+10^(LogEC50 − X) ∗ HillSlope) where X is the agonist concentration. […]

rat-DOR = target: T3, rat-DOR (Rattus norvegicus, UniProt P33533); assay: Radioligand competition binding, [3H]-DPN, HEK293 membranes, DOR
T3 construct: expressed in transfected cells
Experimental: (§5) All synthesized compounds were tested in vitro by radioligand competition binding using [^3H]-diprenorphine ([^3H]-DPN) to measure the affinity for opioid receptor subtypes in membranes from HEK293 cells stably expressing either MOR, DOR, or KOR, as previously described.
(§6) Confluent monolayers of HEK293 (human embryonic kidney 293) cells stably expressing rat-MOR, rat-DOR, or human-KOR were harvested, collected by centrifugation at 1500 rpm for 5 min, and washed once with phosphate-buffered saline (PBS) at pH 7.5. Membranes from cell pellets were carried out as described by Georgoussi and Zioudrou (1993) and Papakonstantinou et al. (2015). Briefly, cell pellets were resuspended in ice-cold membrane buffer (10 mM Tris-HCl, pH 7.5 and 0.1 mM EDTA), homogenized, and centrifuged at 2,000 g for 3 min at 4 °C. Supernatants were further centrifuged at 45,000 rpm for 30 min at 4 °C. The membrane pellet was resuspended in ice-cold membrane buffer at a protein concentration of approximately 1 mg/mL and stored in aliquots at −70 °C. Protein concentration was determined according to Bradford assay.
(§7) In the experiments designed to define compound affinity and selectivity for MOR, DOR, and KOR, membranes expressing each of these opioid receptors ([…]) were incubated at 30 °C for 45 min in buffer containing 50 mM Tris-HCl, pH 7.5, 100 mM NaCl, and 10 mM MgCl2 as described by Georgoussi et al. […] The ability of compounds 10–16 to displace [^3H]-DPN (3.75 nM) binding to the opioid receptors was assessed as described by Morou And Georgoussi (2005). Non-specific binding was measured in the presence of […] Naloxone. The reaction was stopped by rapid filtration and three washes in ice-cold 50 mM Tris-HCl, pH 7.4, through GF/C filters (Whatman, Maidstone, UK) using an automated cell harvester (Brandel Inc., Gaithersburg, MD, USA). The radioactivity was measured by liquid scintillation counting (Liquid Scintillation Analyzer, Packard).
(§8) Analysis of the binding data was performed using the Origin 7.5 software (OriginLab Corporation, Northampton, MA, USA). In calcium mobilization experiments, data were analyzed by non-linear curve fitting equation, using GraphPad 5.0 software. […] Ligand efficacy was expressed as intrinsic activity (α), calculated as the ratio between the Emax of the ligand and that of the respective standards. Calcium mobilization data were expressed as FIU (fluorescence intensity units) in percent, over the baseline. Agonist potencies are given as pEC50 (the negative logarithm to base 10 of the molar concentration of an agonist that produces 50% of the maximal possible effect, Emax). Concentration response curves to agonists were fitted with the following equation: Effect = baseline + (Emax − baseline)/(1+10^(LogEC50 − X) ∗ HillSlope) where X is the agonist concentration.

recombinant human DOR = target: T4, recombinant human DOR (Homo sapiens, UniProt P41143); assay: Calcium mobilization assay, CHO-DOR cells expressing GαqG66Di5; format: cell-based; conditions: for DOR pEC50 (CL95%): agonist mode, crc incomplete = incomplete concentration response curve at 10 μM; for DOR pEC50 (CL95%) / DOR pKB (CL95%): Inactive = inactive at 10 μM; for DOR pKB (CL95%): antagonist mode, DPDPE as agonist; for functional profile at DOR: calcium mobilization
T4 construct: expressed in transfected cells; supplied by Dr. Eva Varga (University of Arizona); infected with a retrovirus for GαqG66Di5
Experimental: as §1, §2, §3, §4

rat-MOR = target: T5, rat-MOR (Rattus norvegicus, UniProt P33535); assay: Radioligand competition binding, [3H]-DPN, HEK293 membranes, MOR
T5 construct: expressed in transfected cells
Experimental: as §5, §6, §7, §8

human-KOR [2] = target: T2, human-KOR; assay: Radioligand competition binding, [3H]-DPN, HEK293 membranes, KOR; set-up: expressed in transfected cells
Experimental: as §5, §6, §7, §8

SMILES	EC50 (recombinant human MOR) [nM]	functional profile at MOR (recombinant human MOR)	intrinsic activity (α) at MOR (recombinant human MOR)	KOR pEC50 (CL95%) (human-KOR [1])	Ki (rat-DOR) [nM]	DOR pEC50 (CL95%) (recombinant human DOR)	DOR pKB (CL95%) (recombinant human DOR)	Ki (rat-MOR) [µM]	Ki (human-KOR [2]) [µM]	MOR pEC50 (CL95%) (recombinant human MOR)	melting point	functional profile at KOR (human-KOR [1])	Kb (human-KOR [1]) [nM]	KOR pKB (CL95%) (human-KOR [1])	Kb (recombinant human DOR) [nM]	functional profile at DOR (recombinant human DOR)	also measured
C[C@H]1[C@H]2Cc3ccc(O)cc3[C@]1(C)CCN2CCC(=O)Nc1ccc(F)cc1 [Compound 10, N-(4-Fluorophenyl)-3-[(2R,6R,11R)-8-hydroxy-6,11-dimethyl-1,4,5,6-tetrahydro-2,6-methano-3-benzazocin-3(2H)-yl]propanamide]	2140	MOR partial agonists	0.30 ± 0.015	crc incomplete	920 ± 120	able to stimulate calcium mobilization, but only at the higher concentration tested; also recorded: crc incomplete	Inactive	0.28 ± 0.013	4.8 ± 0.95								
C[C@H]1[C@H]2Cc3ccc(O)cc3[C@]1(C)CCN2CCC(=O)N1CCCc2ccccc21 [Compound 15, 1-(3,4-Dihydroquinolin-1(2H)-yl)-3-[(2R,6R,11R)-8-hydroxy-6,11-dimethyl-1,4,5,6-tetrahydro-2,6-methano-3-benzazocin-3(2H)-yl]-propan-1-one]						Inactive	Inactive			Inactive	92.2 °C (dec.)	partial agonist of KOR					intrinsic activity (α) at KOR (human-KOR [1]; ratio of Emax of ligand to that of the standard): 0.32 ± 0.016; EC50 (human-KOR [1]; read-out: KOR pEC50 (CL95%) (converted)): 257 nM; Ki (rat-MOR; [3H]-DPN displacement, means ± SEM of three experiments in duplicate, read-out: Ki (μM) ± SEM MOR): 0.36 ± 0.023 µM; Ki (human-KOR [2]; [3H]-DPN displacement, means ± SEM of three experiments in duplicate, read-out: Ki (μM) ± SEM KOR): 0.2 ± 0.02 µM
C[C@H]1[C@H]2Cc3ccc(O)cc3[C@]1(C)CCN2CCC(=O)N(c1ccccc1)c1ccccc1 [Compound 16, 3-[(2R,6R,11R)-8-Hydroxy-6,11-dimethyl-1,4,5,6-tetrahydro-2,6-methano-3-benzazocin-3(2H)-yl]-N,N-diphenylpropanamide]		MOR/KOR antagonist		Inactive		Inactive	Inactive	0.17 ± 0.013	0.2 ± 0.03	Inactive	173.5 °C (dec.)	MOR/KOR antagonist	776	able to inhibit the stimulatory effects induced by dynorphin A			Kb (recombinant human MOR): 759 nM
Cc1ccc(NC(=O)CCN2CC[C@@]3(C)c4cc(O)ccc4C[C@@H]2[C@@H]3C)cc1 [Compound 11, 3-[(2R,6R,11R)-8-Hydroxy-6,11-dimethyl-1,4,5,6-tetrahydro-2,6-methano-3-benzazocin-3(2H)-yl]-N-(4-methylphenyl)propanamide]	1410	MOR partial agonists	0.23 ± 0.011	Inactive	410 ± 23	Inactive		0.24 ± 0.015	1.01 ± 0.11			DOR/KOR antagonists	1410	able to inhibit the stimulatory effects induced by dynorphin A	1480	DOR/KOR antagonists	
C[C@H]1[C@H]2Cc3ccc(O)cc3[C@]1(C)CCN2CCC(=O)Nc1ccc(C#N)cc1 [Compound 12, N-(4-Cyanophenyl)-3-[(2R,6R,11R)-8-hydroxy-6,11-dimethyl-1,4,5,6-tetrahydro-2,6-methano-3-benzazocin-3(2H)-yl]propanamide]	1020	MOR partial agonists	0.34 ± 0.017	Inactive	380 ± 34	Inactive		0.21 ± 0.024	0.85 ± 0.18			DOR/KOR antagonists	1260	able to inhibit the stimulatory effects induced by dynorphin A	1510	DOR/KOR antagonists	
